Where a name gives a salt, the structure may show the parent alone. Read-outs that look alike come from different tables or passages of the source.
How the values were obtained:
Amphetamine Stereotypy = assay: Antagonism of Amphetamine Stereotypy in Rats (ED50 for blocking characteristic amphetamine cage movement); assay type: in vivo; details: for ED50: Rattus norvegicus; for ED50, 24 Hrs.: 1440 min; for ED50, 48 Hrs.: 2880 min; for ED50, 72 Hrs.: 4320 min
Experimental: The effects of the compounds of the present invention on prominent amphetamine-induced symptoms were studied in rats by a rating scale modeled after the one reported by Quinton and Halliwell, and Weissman. Groups of five rats were placed in a covered plastic cage measuring approximately 26 cm.×42 cm.×16 cm. […] They were then treated 1, 5 and 24 hrs. later with d-amphetamine sulfate, 5 mg./kg. intraperitoneally (i.p.). […] On the basis of dose-response data after amphetamine it was possible to determine the effective dose of the compound necessary to antagonize or block the characteristic amphetamine behavior of cage movement for fifty percent of the rats tested (ED50). The time of rating chosen coincides with the peak action of amphetamine which is 60-80 min. after treatment with this agent.
Employing the above-described procedure, the following 4a,9b-trans compounds were tested for their ability to block the behavior effects of amphetamine, the results being reported as the ED50 in mg./kg. at the indicated times: [drawing 30]
A. The following results were obtained on the mixture of diastereomers for those compounds wherein R contains a secondary alcohol group and on the single diastereomer of the other 4a, 9b-trans hexahydro-pyrido-indoles.
B. The results of tests in which compounds of the invention reported in Part A, above are compared with the corresponding δ-substituted-5-aryl-1,2,3,4-tetrahydropyrido[4,3-b]indoles of U.S. Pat. No. 4,001,263 are summarized below. For each pair the results obtained on the prior art compound (a) are given first and the results for the compound of the invention (b) are given second. Where indicated the test compound was also administered orally (p.o.) and tests were carried out for 48 hours.
C. […] In each case the compounds are of the formula
The tests were carried out for 72 hours.

dopamine receptors = dopamine receptors (Rattus norvegicus, UniProt P61169); assay: Inhibition of 3H-Spiroperidol Binding to Dopamine Receptors (rat corpus striatum); parameters: species or system rats (Sprague-Dawley CD males); details: 0.5 nM 3H-spiroperidol, 10 minutes at 37° C.
[1] = ip, 1 h, i.p., Part B, read-out: ED50, 1 Hr.
[2] = ip, 5 h, i.p., Part B, read-out: ED50, 5 Hrs.
[3] = s.c., Part C, isomers of Examples 13 and 14, hydrochloride
[4] = s.c., Part D, enantiomers by synthesis of Example 21, hydrochloride
[5] = sc, 1 h, s.c., Part A, read-out: ED50, 1 Hr.
[6] = sc, 5 h, s.c., Part A, read-out: ED50, 5 Hr.
[7] = sc, 24 h, s.c., Part A, read-out: ED50, 24 Hrs.
[8] = ip, 24 h, i.p., Part B, read-out: ED50, 24 Hrs.
[9] = po, 1 h, p.o., Part B, read-out: ED50, 1 Hr.
[10] = po, 5 h, p.o., Part B, read-out: ED50, 5 Hrs.
[11] = po, 24 h, p.o., Part B, read-out: ED50, 24 Hrs.

Chain of dopamine receptors (P61169 whole entry): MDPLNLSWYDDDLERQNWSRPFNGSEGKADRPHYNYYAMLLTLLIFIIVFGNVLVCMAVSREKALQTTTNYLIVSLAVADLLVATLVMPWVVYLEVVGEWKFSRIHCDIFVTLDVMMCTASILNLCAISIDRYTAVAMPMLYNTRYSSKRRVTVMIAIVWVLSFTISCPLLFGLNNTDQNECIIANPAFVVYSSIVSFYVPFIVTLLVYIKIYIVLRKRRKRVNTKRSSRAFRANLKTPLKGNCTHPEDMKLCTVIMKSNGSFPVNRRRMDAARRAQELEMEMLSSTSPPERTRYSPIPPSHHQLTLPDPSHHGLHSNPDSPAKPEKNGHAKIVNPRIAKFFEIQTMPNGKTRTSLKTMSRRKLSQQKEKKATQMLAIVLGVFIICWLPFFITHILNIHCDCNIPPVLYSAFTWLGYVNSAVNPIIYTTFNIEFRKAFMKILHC

SMILES | ED50 (Amphetamine Stereotypy; [1]) [mg/kg] | ED50 (Amphetamine Stereotypy; [2]) [mg/kg] | ED50 (Amphetamine Stereotypy; [5]) [mg/kg] | ED50 (Amphetamine Stereotypy; [6]) [mg/kg] | ED50 (Amphetamine Stereotypy; [7]) [mg/kg] | ED50 (Amphetamine Stereotypy; [8]) [mg/kg] | further results
CN1CCN(CC/C=C2/c3ccccc3Sc3ccc(S(=O)(=O)N(C)C)cc32)CC1 [Navane, cis-9-[3-(4-Methyl-1-piperazinyl)propylidene]-2-(dimethylsulfonamido)thioanthene, reference compound] | – | – | – | – | – | – | ED50 (Amphetamine Stereotypy; po, 1 h, po, Part A, read-out: ED50, 1 Hr.): 0.32 to 1 mg/kg; ED50 (Amphetamine Stereotypy; po, 5 h, po, Part A, read-out: ED50, 5 Hr.): > 10 mg/kg; ED50 (Amphetamine Stereotypy; po, 24 h, po, Part A, read-out: ED50, 24 Hrs.): > 32 mg/kg
O=C(CCCN1CCc2c(c3cc(F)ccc3n2-c2ccc(F)cc2)C1)c1ccc(F)cc1 [drawing 42 (a), reference compound] | 3.2 to 10 | > 10 | – | – | – | – | –
OC(CCCN1CC[C@@H]2[C@@H](C1)c1cc(F)ccc1N2c1ccc(F)cc1)c1ccc(F)cc1 (single isomer, unassigned) [γ, trans 8-fluoro-5-(p-fluorophenyl)-2-[4-hydroxy-4(p-fluorophenyl)butyl]-2,3,4,4a,5,9b-hexahydro-1H-pyrido[4,3-b]indole hydrochloride] | – | – | – | – | – | – | IC50 (dopamine receptors): 25 nM; ED50, 24 Hrs. (Amphetamine Stereotypy; [3]): 32-100 micrograms/kilograms; ED50, 48 Hrs. (Amphetamine Stereotypy; [4]): ca. 1 mg./kg.; ED50, 72 Hrs. (Amphetamine Stereotypy; [4]): > 1 mg/kg
OC(CCCN1CC[C@H]2[C@@H](C1)c1ccccc1N2c1ccccc1)c1ccc(F)cc1 (relative stereo) [corresponding 4a, 9bcis analog, reference compound] | – | – | 56 | – | – | – | –
c1ccc(CN2CC[C@H]3[C@H](C2)c2ccccc2N3c2ccccc2)cc1 (relative stereo) [R = C6 H5 CH2, dl-trans-2-benzyl-2,3,4,4a,5,9b-hexahydro-5-phenyl-1H-pyrido[4,3-b]indole Hydrochloride, reference compound] | – | – | ~10 | 3.2 to 32 | > 3.2 | – | –
O=C(CCCN1CC[C@H]2[C@H](C1)c1cc(F)ccc1N2c1ccc(F)cc1)c1ccc(F)cc1 (relative stereo) | < 1 | < 1 | < 1 | < 1 | < 1 | < 1 | –
OC(CCCN1CC[C@H]2[C@H](C1)c1cc(F)ccc1N2c1ccc(F)cc1)c1ccccc1 (relative stereo) | – | – | 0.1 to 0.32 | 0.1 to 0.32 | < 0.32 | – | –
c1ccc(N2c3ccccc3[C@H]3CNCC[C@@H]32)cc1 (relative stereo) [R = H, dl-trans-5-Phenyl-2,3,4,4a,5,9b-hexahydro-1H-pyrido[4,3-b]indole, reference compound] | – | – | – | – | – | – | ED50 (Amphetamine Stereotypy; sc, 1 h, read-out: ED50, 1 Hr.): 3.2 to 32 mg/kg; ED50 (Amphetamine Stereotypy; sc, 5 h, read-out: ED50, 5 Hr.): > 3.2 mg/kg; ED50 (Amphetamine Stereotypy; sc, 24 h, read-out: ED50, 24 Hrs.): > 32 mg/kg
OC(CCCN1CCc2c(c3cc(F)ccc3n2-c2ccccc2F)C1)c1ccc(F)cc1 (centres unmarked) [drawing 43 (a), reference compound] | 0.32 to 1 | 1 to 3.2 | – | – | – | > 10 | –
OC(CCCN1CCc2c(c3cc(F)ccc3n2-c2ccc(F)cc2)C1)c1ccc(F)cc1 (centres unmarked) [drawing 41 (a), 8-Fluoro-5-(p-fluorophenyl)-2-[4-(p-fluorophenyl)-4-hydroxybutyl]-1,2,3,4-tetrahydro-γ-carboline hydrochloride, reference compound] | 0.1 to 0.32 | 0.1 to 3.2 | – | – | – | 1 to 3.2 | ED50 (Amphetamine Stereotypy; [9]): 1 to 3.2 mg/kg; ED50 (Amphetamine Stereotypy; [10]): 0.32 to 1 mg/kg; ED50 (Amphetamine Stereotypy; [11]): 1 to 3.2 mg/kg
Cl.OC(CCCN1CCC2C(C1)c1cc(F)ccc1N2c1ccc(F)cc1)c1ccc(F)cc1 (single isomer, unassigned) [β, 8-fluoro-5-(p-fluorophenyl)-2-[4-hydroxy-4-(p-fluorophenyl)butyl]-2,3,4,4a,5,9b-hexahydro-1H-pyrido[4,3-b]indole hydrochloride] | – | – | – | – | – | – | ED50 (Amphetamine Stereotypy; sc, 1 h, s.c., Part C, isomers of Examples 13 and 14, read-out: ED50, 1 Hr.): > 1 mg/kg; ED50 (Amphetamine Stereotypy; sc, 1 h, s.c., Part D, enantiomers by synthesis of Example 21, read-out: ED50, 1 Hr.): > 10 mg/kg; ED50 (Amphetamine Stereotypy; sc, 5 h, s.c., Part C, isomers of Examples 13 and 14, read-out: ED50, 5 Hrs.): > 1 mg/kg; ED50 (Amphetamine Stereotypy; sc, 5 h, s.c., Part D, enantiomers by synthesis of Example 21, read-out: ED50, 5 Hrs.): 5.7 mg/kg; ED50 (Amphetamine Stereotypy; sc, 24 h, s.c., Part C, isomers of Examples 13 and 14, read-out: ED50, 24 Hrs.): > 1 mg/kg; ED50 (Amphetamine Stereotypy; sc, 24 h, s.c., Part D, enantiomers by synthesis of Example 21, read-out: ED50, 24 Hrs.): > 10 mg/kg; ED50 (Amphetamine Stereotypy; sc, 48 h, s.c., Part D, enantiomers by synthesis of Example 21, read-out: ED50, 48 Hrs.): > 10 mg/kg; ED50 (Amphetamine Stereotypy; sc, 72 h, s.c., Part D, enantiomers by synthesis of Example 21, read-out: ED50, 72 Hrs.): > 10 mg/kg
O=C(CCCN1CC[C@H]2[C@H](C1)c1ccccc1N2c1ccccc1)c1ccc(F)cc1 (relative stereo) | – | – | ~0.32 | 0.1 to 0.32 | ~0.32 | – | –
OC(CCCN1CCc2c(c3ccccc3n2-c2ccccc2)C1)c1ccccc1 (centres unmarked) [drawing 40 (a), reference compound] | 3.2 to 10 | 3.2 to 10 | – | – | – | > 10 | –
OC(CCCN1CC[C@H]2[C@H](C1)c1ccccc1N2c1ccccc1)c1ccc(F)cc1 (relative stereo) | – | – | 0.1 to 0.32 | 0.1 to 0.32 | 0.1 to 0.32 | – | –
c1ccc(CCCN2CC[C@H]3[C@H](C2)c2ccccc2N3c2ccccc2)cc1 (relative stereo) [R = C6 H5 (CH2)3, reference compound] | – | – | 3.2 to 10 | 3.2 to 10 | > 10 | – | –
OC(CCCN1CC[C@H]2[C@H](C1)c1cc(F)ccc1N2c1ccc(F)cc1)c1ccc(F)cc1 (relative stereo) [drawing 37, dl-trans-8-Fluoro-5-(p-fluorophenyl)-2-[4-hydroxy-4-(p-fluorophenyl)butyl]-2,3,4,4a,5,9b-hexahydro-1H-pyrido[4,3-b]indole hydrochloride] | 0.032 to 0.1 | 0.032 to 0.1 | 0.032 to 0.1 | 0.032 to 0.1 | 0.032 to 0.1 | 0.032 to 0.1 | ED50 (Amphetamine Stereotypy; ip, 48 h, i.p., Part B, read-out: ED50, 48 Hrs.): 0.1 to 0.32 mg/kg; ED50 (Amphetamine Stereotypy; [9]): 0.32 to 1 mg/kg; ED50 (Amphetamine Stereotypy; [10]): 0.1 to 0.32 mg/kg; ED50 (Amphetamine Stereotypy; [11]): 0.1 to 0.32 mg/kg
Cl.OC(CCCN1CC[C@@H]2[C@@H](C1)c1cc(F)ccc1N2c1ccc(F)cc1)c1ccc(F)cc1 (single isomer, unassigned) [α, trans 8-fluoro-5-(p-fluorophenyl)-2-[4-hydroxy-4(p-fluorophenyl)butyl]-2,3,4,4a,5,9b-hexahydro-1H-pyrido[4,3-b]indole hydrochloride] | – | – | – | – | – | – | ED50, 5 Hrs. (Amphetamine Stereotypy; 5 hrs, s.c., Part C, isomers of Examples 13 and 14, hydrochloride, 300 min): 32-100 micrograms/kilograms; ED50, 24 Hrs. (Amphetamine Stereotypy; [3]): 32-100 micrograms/kilograms; ED50, 48 Hrs. (Amphetamine Stereotypy; [4]): ca. 1 mg./kg.; ED50, 72 Hrs. (Amphetamine Stereotypy; [4]): > 10 mg/kg
OC(CCCN1CC[C@H]2[C@H](C1)c1ccccc1N2c1ccccc1)c1ccccc1 (relative stereo) | 0.032 to 0.1 | 0.032 to 0.1 | 0.032 to 0.1 | 0.032 to 0.1 | 0.1 to 0.32 | 0.1 to 0.32 | –
OC(CCCN1CC[C@@H]2[C@@H](C1)c1cc(F)ccc1N2c1ccccc1F)c1ccc(F)cc1 (relative stereo) [trans-8-fluoro-5-(o-fluorophenyl)-2-[4-hydroxy-4-(p-fluorophenyl)butyl]-2,3,4,4a,5,9b-hexahydro-1H-pyrido[4,3-b]indole] | 0.1 to 0.32 | ~0.1 | < 0.32 | < 0.32 | < 0.32 | ~0.1 | ED50 (Amphetamine Stereotypy; [9]): < 1 mg/kg; ED50 (Amphetamine Stereotypy; [10]): < 1 mg/kg; ED50 (Amphetamine Stereotypy; [11]): < 1 mg/kg
